This test has as its system lung cancer cell line NCI-H82. Put plainly: Cell proliferation assay, NCI-H82 (CELL-TITER GLO). It is filed as cell-based. To be noted: Homo sapiens, NCI-H82, 72 h, NCI-H82 cells, 72 h incubation, cell viability by CELL-TITER GLO, top concentration 1 μM; read-out: EC50, Inhibition of NCl-H82 Cell Proliferation. Summed up:
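NCI-H82 cells, 1,000 per well in RPMI1640, were treated after overnight plating with a 3-fold dilution series from 1 μM. Viability read by CellTiter-Glo luminescence after 72 h. EC50 derived from the curves.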
In the case of `C#Cc1nc(NC(=O)N[C@@H](COC(N)=O)c2ccc(-c3ccnc(N4CCCC4)c3)cc2)cs1` [Compound A235, (R)-2-(3-(2-Ethynylthiazol-4-yl)ureido)-2-(4-(2-(pyrrolidin-1-yl)pyridin-4-yl)-phenyl)ethyl carbamate], the EC50 was ≤ 200 nM.

`C#Cc1ncc(NC(=O)N[C@@H](COC(N)=O)c2ccc(-c3cccc(N4CCCC4)n3)cn2)s1` [Compound A90, (R)-2-(3-(2-Ethynylthiazol-5-yl)ureido)-2-(6-(pyrrolidin-1-yl)-[2,3′-bipyridin]-6′-yl)ethyl carbamate]: the EC50 was ≤ 200 nM.

Regarding `C#Cc1nnc(NC(=O)N[C@@H](CO)c2ccc(-c3cccc4ncsc34)cc2)s1` [Compound A120, (R)-1-(1-(4-(Benzo[d]thiazol-7-yl)phenyl)-2-hydroxyethyl)-3-(5-ethynyl-1,3,4-thiadiazol-2-yl)urea], the EC50 was ≤ 200 nM.

As to `C#Cc1nc(NC(=O)N[C@@H](CO)c2ccc(N3CCCc4nn(C)cc43)cc2)cs1` [Compound A140, (R)-1-(2-Ethynylthiazol-4-yl)-3-(2-hydroxy-1-(4-(2-methyl-2,5,6,7-tetrahydro-4H-pyrazolo[4,3-b]pyridin-4-yl)phenyl)ethyl)urea], the EC50 was ≤ 200 nM.

On to `C#Cc1nc(NC(=O)N[C@@H](CS(C)(=O)=O)c2ccc(-c3cccnc3C3(C#N)CC3)c(Cl)c2)cs1` [Compound A72, (R)-1-(1-(3-Chloro-4-(2-(1-cyanocyclopropyl)pyridin-3-yl)phenyl)-2-(methyl-sulfonyl)ethyl)-3-(2-ethynylthiazol-4-yl)urea], for which the EC50 was ≤ 200 nM.

`C#Cc1nc(NC(=O)N[C@@H](C(=O)NC)c2ccc(-c3cccc4ncsc34)cc2)cs1` [Compound A215, (R)-2-(4-(Benzo[d]thiazol-7-yl)phenyl)-2-(3-(2-ethynylthiazol-4-yl)ureido)-N-methylacetamide]: the EC50 was ≤ 200 nM.

Regarding `C#Cc1nc(NC(=O)N[C@@H](CS(N)(=O)=O)c2ccc(-c3cccc4ncsc34)cc2)cs1` [Compound A198, (R)-2-(4-(Benzo[d]thiazol-7-yl)phenyl)-2-(3-(2-ethynylthiazol-4-yl)ureido)-ethane-1-sulfonamide], the EC50 is ≤ 200 nM.

For `C#Cc1nnc(NC(=O)N[C@@H](COC(N)=O)c2ccc(-c3cccc(N4CCCC4)n3)cc2)s1` [Compound A94, (R)-2-(3-(5-Ethynyl-1,3,4-thiadiazol-2-yl)ureido)-2-(4-(6-(pyrrolidin-1-yl)-pyridin-2-yl)phenyl)ethyl carbamate], the EC50 is ≤ 200 nM.

Take `C#Cc1nc(NC(=O)NCc2ccc(-c3cccc(C4(O)CCC4)c3)cc2)cs1` [Compound A170, 1-(2-Ethynylthiazol-4-yl)-3-((3′-(1-hydroxycyclobutyl)-[1,1′-biphenyl]-4-yl)-methyl)urea]: the EC50 is ≤ 200 nM.

As for `C#Cc1nc(NC(=O)NCc2ccc(-c3cccc(C4(C#N)CC4)c3)nc2)cs1` [Compound A180, 1-((6-(3-(1-Cyanocyclopropyl)phenyl)pyridin-3-yl)methyl)-3-(2-ethynylthiazol-4-yl)urea], the EC50 is ≤ 200 nM.

Turning to `C#Cc1nc(NC(=O)N[C@@H](COC(N)=O)c2ccc(-c3cccc(N4CCCC4)n3)cc2)cs1` [Compound A234, (R)-2-(3-(2-Ethynylthiazol-4-yl)ureido)-2-(4-(6-(pyrrolidin-1-yl)pyridin-2-yl)-phenyl)ethyl carbamate], the EC50 is ≤ 200 nM.

As for `C#Cc1nc(NC(=O)NCc2ccc(-c3cccc(C(=O)CC)c3)cc2)cs1` [Compound A169, 1-(2-Ethynylthiazol-4-yl)-3-((3′-propionyl-[1,1′-biphenyl]-4-yl)methyl)urea], the EC50 is ≤ 200 nM.

`C#Cc1nc(NC(=O)NCC2CCN(c3cccc(C4(C#N)CC4)c3)CC2)cs1` [Compound A240, 1-((1-(3-(1-Cyanocyclopropyl)phenyl)piperidin-4-yl)methyl)-3-(2-ethynylthiazol-4-yl)urea]: the EC50 was ≤ 200 nM.

For the compound `C#Cc1nc(NC(=O)N[C@H](CO)C(=O)N2CCC3(CCCC3)CC2)cs1` [Compound A155, (R)-1-(2-Ethynylthiazol-4-yl)-3-(3-hydroxy-1-oxo-1-(8-azaspiro[4.5]decan-8-yl)propan-2-yl)urea], the EC50 is ≤ 200 nM.

With `C#Cc1nc(NC(=O)N2CCN(c3ccc(-c4cccc(N5CCCC5)c4)cn3)C[C@@H]2CO)cs1` [Compound B56, (R)—N-(2-Ethynylthiazol-4-yl)-2-(hydroxymethyl)-4-(5-(3-(pyrrolidin-1-yl)-phenyl)pyridin-2-yl)piperazine-1-carboxamide], the EC50 is ≤ 200 nM.

Regarding `C#Cc1nnc(NC(=O)N[C@@H](COC(N)=O)c2ccc(-c3ccc(F)cc3C3CC3(F)F)cn2)s1` (stereo partly drawn) [Compound A87, (2R)-2-(5-(2-(2,2-Difluorocyclopropyl)-4-fluorophenyl)pyridin-2-yl)-2-(3-(5-ethynyl-1,3,4-thiadiazol-2-yl)ureido)ethyl carbamate], the EC50 was ≤ 200 nM.

For `C#Cc1nc(NC(=O)N[C@@H](CO)c2ccc(-c3ccccc3C3CC3(F)F)cn2)cs1` (stereo partly drawn) [Compound A80, 1-((1R)-1-(5-(2-(2,2-Difluorocyclopropyl)phenyl)pyridin-2-yl)-2-hydroxyethyl)-3-(2-ethynylthiazol-4-yl)urea], the EC50 was ≤ 200 nM.

On to `C#Cc1nc(NC(=O)N[C@H](CO)C2CCN(c3ccccc3C#N)CC2)cs1` [Compound A151, (S)-1-(1-(1-(2-Cyanophenyl)piperidin-4-yl)-2-hydroxyethyl)-3-(2-ethynylthiazol-4-yl)urea], for which the EC50 is ≤ 200 nM.

As for `C#Cc1nc(NC(=O)N[C@@H](COC(C)=O)c2ccc(-c3cccc4ncsc34)cc2)cs1` [Compound A201, (R)-2-(4-(Benzo[d]thiazol-7-yl)phenyl)-2-(3-(2-ethynylthiazol-4-yl)ureido)ethyl acetate], the EC50 was ≤ 200 nM.

Regarding `C#Cc1nc(NC(=O)N[C@@H](CO)c2ccc(-c3cccc4c3c(C#N)nn4C)cc2)cs1` [Compound A53, (R)-1-(1-(4-(3-Cyano-1-methyl-1H-indazol-4-yl)phenyl)-2-hydroxyethyl)-3-(2-ethynylthiazol-4-yl)urea], the EC50 was ≤ 200 nM.

As for `C#Cc1nc(NC(=O)N[C@@H](COC(N)=O)c2ccc(-c3ccc(F)cc3C3(C#N)CC3)cn2)cs1` [Compound A76, (R)-2-(5-(2-(1-Cyanocyclopropyl)-4-fluorophenyl)pyridin-2-yl)-2-(3-(2-ethynyl-thiazol-4-yl)ureido)ethyl carbamate], the EC50 is ≤ 200 nM.

Regarding `C#Cc1nc(NC(=O)N[C@H](CO)C(=O)N2CCC(N3CC(F)(F)C3)CC2)cs1` [Compound A160, (R)-1-(1-(4-(3,3-Difluoroazetidin-1-yl)piperidin-1-yl)-3-hydroxy-1-oxopropan-2-yl)-3-(2-ethynylthiazol-4-yl)urea], the EC50 was 200 to 1000 nM.

On to `C#Cc1nc(NC(=O)N[C@@H](CO)C(=O)N2CCC(F)(F)CC2)cs1` [Compound A161, (S)-1-(1-(4,4-Difluoropiperidin-1-yl)-3-hydroxy-1-oxopropan-2-yl)-3-(2-ethynyl-thiazol-4-yl)urea], for which the EC50 is ≤ 200 nM.

Turning to `C#Cc1nc(NC(=O)N(C)[C@@H](COC(N)=O)c2ccc(-c3ccc(F)cc3C3CC3(F)F)cn2)cs1` (stereo partly drawn) [Compound A84, (2R)-2-(5-(2-(2,2-Difluorocyclopropyl)-4-fluorophenyl)pyridin-2-yl)-2-(3-(2-ethynylthiazol-4-yl)-1-methylureido)ethyl carbamate], the EC50 was ≤ 200 nM.

Take `C#Cc1nc(NC(=O)N[C@@H](COC(N)=O)c2ccc(-c3cccc4cccnc34)cc2)cs1` [Compound A227, (R)-2-(3-(2-Ethynylthiazol-4-yl)ureido)-2-(4-(quinolin-8-yl)phenyl)ethyl carbamate]: the EC50 is ≤ 200 nM.

Take `C#Cc1nc(NC(=O)N[C@@H](CS(C)(=O)=O)c2ccc(-c3cccc4ncsc34)cc2)cs1` [Compound A197, (R)-1-(1-(4-(Benzo[d]thiazol-7-yl)phenyl)-2-(methylsulfonyl)ethyl)-3-(2-ethynyl-thiazol-4-yl)urea]: the EC50 is ≤ 200 nM.

Take `C#Cc1nc(N(C)C(=O)N[C@@H](CO)c2ccc(-c3cccc4ncsc34)cc2)cs1` [Compound A112, (R)-3-(1-(4-(Benzo[d]thiazol-7-yl)phenyl)-2-hydroxyethyl)-1-(2-ethynylthiazol-4-yl)-1-methylurea]: the EC50 is ≤ 200 nM.

With `C#Cc1nc(NC(=O)NCC(=O)N2CC(c3ccccc3C#N)C2)cs1` [Compound A34, 1-(2-(3-(2-Cyanophenyl)azetidin-1-yl)-2-oxoethyl)-3-(2-ethynylthiazol-4-yl)urea], the EC50 was 200 to 1000 nM.

As to `C#Cc1nc(NC(=O)N[C@@H](COC(N)=O)c2ccc(-c3cccc4nccnc34)cc2)cs1` [Compound A51, (R)-2-(3-(2-Ethynylthiazol-4-yl)ureido)-2-(4-(quinoxalin-5-yl)phenyl)ethyl carbamate], the EC50 is ≤ 200 nM.

With `C#Cc1nnc(NC(=O)N[C@@H](CO)c2ccc(-c3cccc(N4CCCC4)n3)cc2)s1` [Compound A93, (R)-1-(5-Ethynyl-1,3,4-thiadiazol-2-yl)-3-(2-hydroxy-1-(4-(6-(pyrrolidin-1-yl)-pyridin-2-yl)phenyl)ethyl)urea], the EC50 was ≤ 200 nM.

On to `C#Cc1cccc(NC(=O)N[C@@H](CO)c2ccc(-c3cccc(N4CCCC4)n3)cc2)n1` [Compound A124, (R)-1-(6-Ethynylpyridin-2-yl)-3-(2-hydroxy-1-(4-(6-(pyrrolidin-1-yl)pyridin-2-yl)phenyl)ethyl)urea], for which the EC50 is 200 to 1000 nM.

On to `C#Cc1nc(NC(=O)N[C@@H](CO)c2ccc(C3=C(C#N)CCCC3)cn2)cs1` [Compound A142, (R)-1-(1-(5-(2-Cyanocyclohex-1-en-1-yl)pyridin-2-yl)-2-hydroxyethyl)-3-(2-ethynylthiazol-4-yl)urea], for which the EC50 is ≤ 200 nM.

For `C#Cc1nc(NC(=O)N[C@@H](CO)c2ccc(-c3ccccc3C3(C#N)CC3)cc2)cs1` [Compound A54, (R)-1-(1-(2′-(1-Cyanocyclopropyl)-[1,1′-biphenyl]-4-yl)-2-hydroxyethyl)-3-(2-ethynylthiazol-4-yl)urea], the EC50 was ≤ 200 nM.

For the origin of these results see patent publication US20240101546A1, “HETEROARYL-ACETYLENES, PHARMACEUTICAL COMPOSITIONS THEREOF, AND THEIR THERAPEUTIC APPLICATIONS” (Eubulus Biotherapeutics Inc., priority 2020, published 2024).
